# Experimental data as given in paper PMC6792352, “Limited Chemical Structural Diversity Found to Modulate Thyroid Hormone Receptor in the Tox21 Chemical Library” (Environmental Health Perspectives, 2019).
# Structures can show the parent of a compound that is named as a salt.
# Test: in vitro
# Conditions: rat, gh3-tre-luc cells
SMILES,CC50 at 24 h (AC50 (uM) modified / 1000) [µM],other results
CCCCCOC(=O)COc1cc(N2C(=O)C3=C(CCCC3)C2=O)c(F)cc1Cl [Flumiclorac-pentyl],> 90,
O=C(CCCN1CCC(O)(c2ccc(Br)cc2)CC1)c1ccc(F)cc1 [Bromperidol],> 20,
CCCC(CCC)C(=O)O [Valproic acid],> 90,
CC(=O)Nc1c(I)c(C(=O)O)c(I)c(N(C)C(C)=O)c1I [Metrizoate sodium],> 50,
CCCCCOC(=O)c1ccccc1C(=O)OCCCCC [Dipentyl phthalate],> 90,
CCCCCCCCC(=O)Cl [Nonanoyl chloride],> 90,
O=C(NOCC1CC1)c1ccc(F)c(F)c1Nc1ccc(I)cc1Cl [C.I. 1040],21.1,
Cc1ccc2c(Br)cc(Br)c(O)c2n1 [Broquinaldol],23,
O=C(c1ccccc1)C1CCCCC1 [Cyclohexylphenylketone],> 90,
"CN(C)CCc1c[nH]c2ccccc12 [N,N-Dimethyltryptamine fumarate]",> 100,
ONc1ccccc1 [N-Phenylhydroxylamine],> 100,
CCOc1cccc(-n2cc(C(=O)N3CCN(c4cc(C(=O)O)c5ccccc5c4)CC3)nc2-c2ccc(C)cc2)c1 [PharmaGSID_47337],77.9,
Clc1ccc(C2(Cn3cncn3)OCCO2)c(Cl)c1 [Azaconazole],> 90,
O=C(Cl)CCl [Chloroacetyl chloride],> 90,
"CCCCCCCCCCCC[N+](C)(C)CC(=O)O [N-(Alkyl C10-C16)-N,N-dimethylglycine betaine]",79.2,
COC(c1ccccc1)(c1ccccc1)[C@H](Oc1nc(C)cc(C)n1)C(=O)O [Ambrisentan],> 50,
"OCC(CBr)(CBr)CBr [3-Bromo-2,2-bis(bromomethyl)propanol]",> 90,
CC/C(=N\OC/C=C/Cl)C1=C(O)CC(C2CCOCC2)CC1=O (stereo not drawn) [Tepraloxydim],> 90,
CC(Oc1cccc(Cl)c1)C(=O)O (stereo not drawn) [Cloprop],> 90,
"O=C(O)c1cccc(C(=O)O)c1C(=O)O [1,2,3-Benzenetricarboxylic acid]",> 90,
COc1cc(/C=C/C(=O)O[C@H]2CC[C@]34C[C@]35CC[C@]3(C)[C@@H]([C@H](C)CCC=C(C)C)CC[C@@]3(C)[C@@H]5CC[C@H]4C2(C)C)ccc1O [gamma-Oryzanol],> 50,
"O=C=Nc1ccc(Cl)c(Cl)c1 [3,4-Dichlorophenyl isocyanate]",> 90,
CN(C(=O)C(Cl)Cl)c1ccc(OC(=O)c2ccco2)cc1 [Diloxanide furoate],> 50,
NC=O [Formamide],> 100,
CCOc1ccc(/N=C(\C)Nc2ccc(OCC)cc2)cc1 [Phenacaine],> 50,

SMILES,CC50 at 24 h (AC50 (uM) modified / 1000) [µM],other results
"Nc1ccc(N)c(Cl)c1 [2-Chloro-1,4-diaminobenzene sulfate]",> 90,
"CCc1cc(OC)c(C[C@H](C)N)cc1OC [(+)-2,5-Dimethoxy-4-ethylamphetamine hydrochloride]",35.7,
Cc1cc(Cl)ccc1OC(C)C(=O)O (stereo not drawn) [Mecoprop],> 90,
"COc1ccc(OC)c(C[C@H](C)N)c1 [(2S)-1-(2,5-Dimethoxyphenyl)propan-2-amine hydrogen chloride (1:1)]",,"CC50 at 24 h (AC50 (uM) modified / 1000, Tox21_110001=Tox21_112851, viability, 1 nM T3 present, 24 h): > 100 µM"
c1ccc(C2(N3CCCC3)CCCCC2)cc1 [Rolicyclidine],,"CC50 at 24 h (AC50 (uM) modified / 1000, Tox21_110001=Tox21_111832, viability, 1 nM T3 present, 24 h): 14.9 µM"
CCCCCC=O [Hexanal],> 100,
NC(N)=[Se] [Selenourea],,"CC50 at 24 h (AC50 (uM) modified / 1000, Tox21_110001=Tox21_200857, viability, 1 nM T3 present, 24 h): > 90 µM"
Cc1ccc(N(CC2=NCCN2)c2cccc(O)c2)cc1 [Phentolamine],45.1,
CCCOc1ccc2nc(NC(=O)OC)sc2c1 [Tioxidazole],2.38,
CC(C)c1ccccc1 [Cumene],> 100,
CC(Cc1ccc(O)cc1)NCC(O)c1cc(O)cc(O)c1 (stereo not drawn) [Fenoterol hydrobromide],> 50,
O=C(c1cc2ccccc2o1)N1CCN(Cc2ccccc2)CC1 [Befuraline],> 50,
OCCBr [2-Bromo-1-ethanol],,"CC50 at 24 h (AC50 (uM) modified / 1000, Tox21_110001=Tox21_201036, viability, 1 nM T3 present, 24 h): > 90 µM"
O=C(CO)[C@@H](O)[C@H](O)[C@@H](O)CO [L-(-)-Sorbose],> 50,
C=CC(=O)OCCOCCOC(=O)C=C [Diethylene glycol diacrylate],21.6,
CCCCCCCCCCC=CC#N [Tridec-2-enenitrile],> 90,
CCC(C)(C)C1CCCCC1OC(C)=O (stereo not drawn) [2-(2-Methylbutan-2-yl)cyclohexyl acetate],> 90,
CC(=O)Nc1ccc2c(c1)Cc1ccccc1-2 [2-Acetylaminofluorene],,"CC50 at 24 h (AC50 (uM) modified / 1000, Tox21_110001=Tox21_200830, viability, 1 nM T3 present, 24 h): > 90 µM"
C=CCOC(C)=O [Allyl acetate],> 90,
O=c1[nH]c(=O)n(Cl)c(=O)n1Cl [Sodium dichloroisocyanurate],,"CC50 at 24 h (AC50 (uM) modified / 1000, Tox21_110001=Tox21_112083, viability, 1 nM T3 present, 24 h): > 50 µM; CC50 at 24 h (AC50 (uM) modified / 1000, Tox21_110001=Tox21_201601, viability, 1 nM T3 present, 24 h): > 90 µM"
C=CC1=C(C)c2cc3[nH]c(cc4nc(cc5[nH]c(cc1n2)c(C)c5CCC(=O)O)C(CCC(=O)O)=C4C)c(C)c3C=C [Protoporphyrin disodium],> 50,
"Nc1ccc(-c2ccc(N)c(Cl)c2)cc1Cl [3,3'-Dichlorobenzidine]",,"CC50 at 24 h (AC50 (uM) modified / 1000, Tox21_110001=Tox21_202224, viability, 1 nM T3 present, 24 h): 26.1 µM"
CC(C)[C@]12CC(=O)[C@H](C)[C@H]1C2 [alpha-Thujone],,"CC50 at 24 h (AC50 (uM) modified / 1000, Tox21_110001=Tox21_200868, viability, 1 nM T3 present, 24 h): > 90 µM"
Cc1onc(-c2c(Cl)cccc2Cl)c1C(=O)N[C@@H]1C(=O)N2[C@@H]1SC(C)(C)[C@@H]2C(=O)O [Dicloxacillin sodium salt monohydrate],> 50,
Cc1ccc(OC(=O)c2ccccc2O)cc1 [Salicylic acid p-tolyl ester],> 90,

SMILES,CC50 at 24 h (AC50 (uM) modified / 1000) [µM],other results
Nc1ccc2cc3ccc(N)cc3nc2c1 [Proflavin hydrochloride],> 90,
NS(=O)(=O)c1cc2c(cc1C(F)(F)F)NC(Cc1ccccc1)NS2(=O)=O (stereo not drawn) [Bendroflumethiazide],> 20,
O=CCCCC=O [Glutaraldehyde],> 90,
CCCCCC/C(C=O)=C\c1ccccc1 [Hexyl cinnamic aldehyde],> 90,
NCCNCCNCCN [Triethylenetetramine],> 90,
O=[N+]([O-])c1cccc(I)c1 [1-Iodo-3-nitrobenzene],> 90,
CC[N+](CC)(CC)CCOc1cccc(OCC[N+](CC)(CC)CC)c1OCC[N+](CC)(CC)CC [Gallamine triethiodide],> 50,
CSc1nc(N=[N+]=[N-])nc(NC(C)C)n1 [Aziprotryne],,"CC50 at 24 h (AC50 (uM) modified / 1000, Tox21_110001=Tox21_301004, viability, 1 nM T3 present, 24 h): > 90 µM"
"C=CCCCCCCC=C [1,9-Decadiene]",> 90,
CC(C)CCCC(C)NC(C)C (stereo not drawn) [Iproheptine],> 50,
S=C(S)N1CCNCC1 [1-Piperazinecarbodithioic acid],,"CC50 at 24 h (AC50 (uM) modified / 1000, Tox21_110001=Tox21_112759, viability, 1 nM T3 present, 24 h): > 50 µM"
Cc1ccc(N)cc1[N+](=O)[O-] [4-Methyl-3-nitroaniline],> 90,
CC(C)=CCCC(C)=CC#N [Citralva],> 90,
"CCCCCCCCCCCC(=O)N(CCO)CCO [N,N-Bis(2-hydroxyethyl)dodecanamide]",42.5,
CCC1(C2=NCCN2)Cc2ccccc2O1 (stereo not drawn) [Efaroxan],> 50,
"CN1C(=O)N(C)C(O)C1O (stereo not drawn) [4,5-Dihydroxy-1,3-dimethylimidazolidin-2-one]",> 90,
OCc1ccccc1 [Benzyl alcohol],> 90,
c1ccc2c(CCC3CCNCC3)c[nH]c2c1 [Indalpine hydrochloride],18.8,
C[C@@]12CCC[C@H]1[C@@H]1CC[C@H]3C[C@@H](O)CC[C@]3(C)[C@H]1CC2 [5alpha-Androstan-3beta-ol],> 50,
c1ccc(C[n+]2cccc3ccccc32)cc1 [1-Benzylquinolinium chloride],> 90,
CC(=O)OC1CC(C)OC(C)O1 (stereo not drawn) [Dimethoxane],> 90,
CC1(C)[C@H](C(=O)O)N2C(=O)C[C@H]2S1(=O)=O [Sulbactam],> 50,
C[C@@H](O)[C@H]1C(=O)N2C(C(=O)[O-])=C(SC3Cn4cnc[n+]4C3)[C@H](C)[C@H]12 (stereo partly drawn) [Biapenem],> 50,
Cc1ccc(S)cc1 [4-Thiocresol],> 90,
